ChEMBL document CHEMBL5634155, “Design and synthesis of pyrazole derivatives against neutrophilic inflammation” (Eur J Med Chem, 2023)

Test system: Neutrophil
Assay: Inhibition of fMLF/CB-induced human Neutrophil activation assessed as reduction in elastase release using MeO-Suc-Ala-Ala-Pro-Val-pnitroanilide as substrate incubated for 5 mins
Assay type: functional, cell-based
Conditions: not given

| IC50 [nM] | Compound |
| --- | --- |
| 2130 | CCCCCCCn1nc(-c2ccco2)cc1-c1ccccc1 |
| 2270 | O=Cc1ccc(-c2nn(Cc3ccccc3Br)c3ccccc23)o1 |
| 3570 | Fc1cccc(Cn2nc(-c3ccco3)cc2-c2ccccc2)c1 |
| 2110 | Fc1ccccc1Cn1nc(-c2ccco2)c2ccccc21 |
| 3680 | O=Cc1ccc(-c2nn(Cc3ccccc3)c3ccccc23)o1 |
| > 10000 | Fc1cccc(Cn2cc(-c3ccccc3)c(-c3cccs3)n2)c1 |
| > 10000 | Fc1cccc(Cn2nc(-c3cccs3)cc2-c2ccccc2)c1 |
| > 10000 | COc1ccc(-c2nn(Cc3ccccc3)cc2-c2ccccc2)cc1OC |
| > 10000 | c1ccc(Cn2cc(-c3ccccc3)c(-c3cccs3)n2)cc1 |
| > 10000 | COc1cccc(Cn2nc(-c3ccccc3)cc2-c2ccccc2)c1 |
| > 10000 | COc1ccc(-c2cc(-c3ccccc3)n(Cc3cccc(F)c3)n2)cc1OC |
| > 10000 | O=C(O)c1ccc(-c2nn(Cc3ccccc3)c3ccccc23)o1 |
| 260 | c1coc(-c2nn(CC3CCCCC3)c3ccccc23)c1 |
| > 10000 | COc1ccc(-c2nn(Cc3cccc(F)c3)cc2-c2ccccc2)cc1OC |
| > 10000 | c1ccc(Cn2cc(-c3ccccc3)c(-c3ccccc3)n2)cc1 |
| > 10000 | O=Cc1ccc(-c2nn(C(=O)c3ccccc3F)c3ccccc23)o1 |
| > 10000 | O=C(O)c1ccc(-c2nn(CC3CCCCC3)c3ccccc23)o1 |
| > 10000 | c1ccc(Cn2nc(-c3ccco3)cc2-c2ccccc2)cc1 |
| > 10000 | COc1ccc(-c2nn(CC3CCCCC3)cc2-c2ccccc2)cc1OC |
| 1080 | CCCCCCCn1cc(-c2ccccc2)c(-c2ccco2)n1 |
| 7580 | O=[N+]([O-])c1cccc2c(-c3ccc(CO)o3)nn(Cc3ccccc3)c12 |
| 2050 | Fc1cccc(Cn2cc(-c3ccccc3)c(-c3ccco3)n2)c1 |
| > 10000 | c1ccc(Cn2cc(-c3ccccc3)c(-c3ccco3)n2)cc1 |

Test system: Neutrophil
Assay: Inhibition of fMLF/CB-induced human Neutrophil activation assessed as reduction in superoxide anion generation at 10 uM preincubated with compound for 2 mins prior to CB induction for 3 mins followed by fMLF addition by spectrophotometric analysis relative to control
Assay type: functional
Conditions: 5 min

| Compound | inhibition at 10 µM [%] |
| --- | --- |
| CCCCCCCn1nc(-c2ccco2)cc1-c1ccccc1 | 101 |
| O=Cc1ccc(-c2nn(Cc3ccccc3Br)c3ccccc23)o1 | 67.4 |
| Fc1cccc(Cn2nc(-c3ccco3)cc2-c2ccccc2)c1 | 94.6 |
| Fc1ccccc1Cn1nc(-c2ccco2)c2ccccc21 | 100 |
| O=Cc1ccc(-c2nn(Cc3ccccc3)c3ccccc23)o1 | 75.2 |
| Fc1cccc(Cn2cc(-c3ccccc3)c(-c3cccs3)n2)c1 | 63.7 |
| Fc1cccc(Cn2nc(-c3cccs3)cc2-c2ccccc2)c1 | 73.3 |
| COc1ccc(-c2nn(Cc3ccccc3)cc2-c2ccccc2)cc1OC | 68.2 |
| c1ccc(Cn2cc(-c3ccccc3)c(-c3cccs3)n2)cc1 | 65.7 |
| COc1cccc(Cn2nc(-c3ccccc3)cc2-c2ccccc2)c1 | 8.5 |
| COc1ccc(-c2cc(-c3ccccc3)n(Cc3cccc(F)c3)n2)cc1OC | 44.5 |
| O=C(O)c1ccc(-c2nn(Cc3ccccc3)c3ccccc23)o1 | 43.4 |
| c1coc(-c2nn(CC3CCCCC3)c3ccccc23)c1 | 87.8 |
| COc1ccc(-c2nn(Cc3cccc(F)c3)cc2-c2ccccc2)cc1OC | 33.7 |
| c1ccc(Cn2cc(-c3ccccc3)c(-c3ccccc3)n2)cc1 | 61.6 |
| O=Cc1ccc(-c2nn(C(=O)c3ccccc3F)c3ccccc23)o1 | 31.8 |
| O=C(O)c1ccc(-c2nn(CC3CCCCC3)c3ccccc23)o1 | 73.2 |
| c1ccc(Cn2nc(-c3ccco3)cc2-c2ccccc2)cc1 | 73 |
| COc1ccc(-c2nn(CC3CCCCC3)cc2-c2ccccc2)cc1OC | 43.9 |
| CCCCCCCn1cc(-c2ccccc2)c(-c2ccco2)n1 | 102 |
| O=[N+]([O-])c1cccc2c(-c3ccc(CO)o3)nn(Cc3ccccc3)c12 | 82.6 |
| Fc1cccc(Cn2cc(-c3ccccc3)c(-c3ccco3)n2)c1 | 90.2 |
| O=C(c1ccccc1)n1nc(-c2ccco2)c2ccccc21 | 59.7 |
| c1ccc(Cn2cc(-c3ccccc3)c(-c3ccco3)n2)cc1 | 94.2 |

Test system: Neutrophil
Assay: Inhibition of fMLF/CB-induced human Neutrophil activation assessed as reduction in elastase release at 10 uM using MeO-Suc-Ala-Ala-Pro-Val-pnitroanilide as substrate incubated for 5 mins relative to control
Assay type: functional
Conditions: not given

| Compound | inhibition at 10 µM [%] |
| --- | --- |
| CCCCCCCn1nc(-c2ccco2)cc1-c1ccccc1 | 115 |
| O=Cc1ccc(-c2nn(Cc3ccccc3Br)c3ccccc23)o1 | 106 |
| Fc1cccc(Cn2nc(-c3ccco3)cc2-c2ccccc2)c1 | 76.6 |
| Fc1ccccc1Cn1nc(-c2ccco2)c2ccccc21 | 94.5 |
| O=Cc1ccc(-c2nn(Cc3ccccc3)c3ccccc23)o1 | 89.7 |
| Fc1cccc(Cn2cc(-c3ccccc3)c(-c3cccs3)n2)c1 | 33.6 |
| Fc1cccc(Cn2nc(-c3cccs3)cc2-c2ccccc2)c1 | 35.5 |
| COc1ccc(-c2nn(Cc3ccccc3)cc2-c2ccccc2)cc1OC | 7.02 |
| c1ccc(Cn2cc(-c3ccccc3)c(-c3cccs3)n2)cc1 | 23.5 |
| COc1cccc(Cn2nc(-c3ccccc3)cc2-c2ccccc2)c1 | 1.65 |
| COc1ccc(-c2cc(-c3ccccc3)n(Cc3cccc(F)c3)n2)cc1OC | 38.5 |
| O=C(O)c1ccc(-c2nn(Cc3ccccc3)c3ccccc23)o1 | 16.8 |
| c1coc(-c2nn(CC3CCCCC3)c3ccccc23)c1 | 73.9 |
| COc1ccc(-c2nn(Cc3cccc(F)c3)cc2-c2ccccc2)cc1OC | 16 |
| c1ccc(Cn2cc(-c3ccccc3)c(-c3ccccc3)n2)cc1 | 6.79 |
| O=Cc1ccc(-c2nn(C(=O)c3ccccc3F)c3ccccc23)o1 | 52.2 |
| O=C(O)c1ccc(-c2nn(CC3CCCCC3)c3ccccc23)o1 | 43.6 |
| c1ccc(Cn2nc(-c3ccco3)cc2-c2ccccc2)cc1 | 46 |
| COc1ccc(-c2nn(CC3CCCCC3)cc2-c2ccccc2)cc1OC | 19.1 |
| CCCCCCCn1cc(-c2ccccc2)c(-c2ccco2)n1 | 110 |
| O=[N+]([O-])c1cccc2c(-c3ccc(CO)o3)nn(Cc3ccccc3)c12 | 68.3 |
| Fc1cccc(Cn2cc(-c3ccccc3)c(-c3ccco3)n2)c1 | 100 |
| c1ccc(Cn2cc(-c3ccccc3)c(-c3ccco3)n2)cc1 | 101 |

Test system: Neutrophil
Assay: Inhibition of fMLF/CB-induced human Neutrophil activation assessed as reduction in superoxide anion generation preincubated with compound for 2 mins prior to CB induction for 3 mins followed by fMLF addition by spectrophotometric analysis
Assay type: functional, cell-based
Conditions: not given

| IC50 [nM] | Compound |
| --- | --- |
| 694 | CCCCCCCn1nc(-c2ccco2)cc1-c1ccccc1 |
| 190 | O=Cc1ccc(-c2nn(Cc3ccccc3Br)c3ccccc23)o1 |
| 45.9 | Fc1cccc(Cn2nc(-c3ccco3)cc2-c2ccccc2)c1 |
| 1050 | Fc1ccccc1Cn1nc(-c2ccco2)c2ccccc21 |
| 1000 | O=Cc1ccc(-c2nn(Cc3ccccc3)c3ccccc23)o1 |
| 1790 | Fc1cccc(Cn2cc(-c3ccccc3)c(-c3cccs3)n2)c1 |
| 76.2 | Fc1cccc(Cn2nc(-c3cccs3)cc2-c2ccccc2)c1 |
| 218000 | COc1ccc(-c2nn(Cc3ccccc3)cc2-c2ccccc2)cc1OC |
| 145000 | c1ccc(Cn2cc(-c3ccccc3)c(-c3cccs3)n2)cc1 |
| > 10000 | COc1cccc(Cn2nc(-c3ccccc3)cc2-c2ccccc2)c1 |
| > 10000 | COc1ccc(-c2cc(-c3ccccc3)n(Cc3cccc(F)c3)n2)cc1OC |
| > 10000 | O=C(O)c1ccc(-c2nn(Cc3ccccc3)c3ccccc23)o1 |
| 180 | c1coc(-c2nn(CC3CCCCC3)c3ccccc23)c1 |
| > 10000 | COc1ccc(-c2nn(Cc3cccc(F)c3)cc2-c2ccccc2)cc1OC |
| 201000 | c1ccc(Cn2cc(-c3ccccc3)c(-c3ccccc3)n2)cc1 |
| > 10000 | O=Cc1ccc(-c2nn(C(=O)c3ccccc3F)c3ccccc23)o1 |
| 4930 | O=C(O)c1ccc(-c2nn(CC3CCCCC3)c3ccccc23)o1 |
| 75.1 | c1ccc(Cn2nc(-c3ccco3)cc2-c2ccccc2)cc1 |
| > 10000 | COc1ccc(-c2nn(CC3CCCCC3)cc2-c2ccccc2)cc1OC |
| 1810 | O=[N+]([O-])c1cccc2c(-c3ccc(CO)o3)nn(Cc3ccccc3)c12 |
| 170 | O=C(c1ccccc1)n1nc(-c2ccco2)c2ccccc21 |
